pKd: −log10 of the molar value.

Experimental findings from PMC6796961, “Bioinformatic and biochemical analysis of the key binding sites of the pheromone binding protein of Cyrtotrachelus buqueti Guerin-Meneville (Coleoptera: Curculionidea)” (PeerJ, 2019) are described below.

Holding throughout (format): binding
For assay [1], the target named is T1, CbuqPBP1 (Cyrtotrachelus buqueti, UniProt A0A1B3IIF7, F69A).
T1 construct: E. coli BL21(DE3), pET-28a(+); His-tag cut with enterokinase; about 400 bp insert, 16 kDa
T1 sequence (A0A1B3IIF7 17-143 F69A): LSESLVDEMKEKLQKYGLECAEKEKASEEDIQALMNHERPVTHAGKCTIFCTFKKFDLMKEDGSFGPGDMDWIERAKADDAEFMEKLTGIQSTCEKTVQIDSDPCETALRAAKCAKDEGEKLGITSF
The experiment in a line: fluorescence titration, Scatchard plot.

The target of assay [2] is T2, CbuqPBP1 (Cyrtotrachelus buqueti, UniProt A0A1B3IIF7, H53A).
T2 construct: E. coli BL21(DE3), pET-28a(+); His-tag cut with enterokinase; about 400 bp insert, 16 kDa
T2 sequence (A0A1B3IIF7 17-143 H53A): T1 sequence (A0A1B3IIF7 17-143 F69A)
The experiment in a line: fluorescence titration, Scatchard plot.

In assay [3] the target is T3, CbuqPBP1 (Cyrtotrachelus buqueti, UniProt A0A1B3IIF7).
T3 construct: E. coli BL21(DE3), pET-28a(+); His-tag cut with enterokinase; about 400 bp insert, 16 kDa
T3 sequence (A0A1B3IIF7 17-143): T1 sequence (A0A1B3IIF7 17-143 F69A)
The experiment in a line: fluorescence titration, Scatchard plot.

Assay [4] concerns the target T3, CbuqPBP1. The experiment in a line: competitive displacement of 1-NPN fluorescence. Particulars: for IC50: read-out: IC50 (μM) / PBP1; for Ki: read-out: Ki (μM) / PBP1. The source says:
(§1) competitive displacement of 1-NPN fluorescence on CbuqPBP1

For assay [5], the target named is T1, CbuqPBP1. The experiment in a line: competitive displacement of 1-NPN fluorescence.
Excerpt: as §1

Take `c1ccc(Nc2cccc3ccccc23)cc1` [1-NPN]: the values for the negative logarithm of the Kd (pKd) in assay [1], in assay [2] and in assay [3] were 5.65, 5.47 and 5.56, respectively.
`c1ccc2scnc2c1` [benzothiazole]: in assay [4], the IC50 came to 13.4 µM and the Ki turned out to be 9.82 µM. In assay [5], this molecule had an IC50 of 10.5 µM and a Ki of 7.3 µM.
Regarding `C[C@@H]1CC[C@H]2C(C)(C)[C@H]3C[C@@]12CC[C@@]3(C)O` [cedrol], in assay [4], the IC50 turned out to be 30 µM and the Ki was determined as 21.9 µM.
`CCCCOC(=O)c1ccccc1C(=O)OCCCC` [dibutyl phthalate]: in assay [5], the IC50 stood at 20 µM and the Ki came to 13.9 µM.
